Test results from patent US4029789A, “1-[2'-(α-Furoyl or α-thienoyl)eth-1'-yl]-2-(4"-cinnamyl piperazin-1"-yl methyl)benzimidazoles and method of using same” (Delalande S.A., priority 1974, dated 1977).
Entries after “also recorded” stand apart in the source; their conditions may differ. Like-named read-outs stand apart in the source and are kept apart here.

Experiments:
[1] = test system: morphinic respiratory depression; experiment: Respiratory analeptic properties, vigil rabbit, morphinic respiratory depression; format: in vivo; details: for respiratory analeptic activity (in words): i.v., vigil rabbit, comparison with reference compound
Method: The compounds of formula (I) administered intravenously to a vigil rabbit, are capable of opposing morphinic respiratory depression (subcutaneous injection of 50 mg/kg of morphine hydrochloride).
.- Respiratory analeptic properties were studied in a vigil rabbit subjected to a morphinic respiratory depression. The products studied were administered intravenously.

[2] = test system: bronchoconstriction caused by histamine; experiment: Anti-bronchoconstriction, anaesthetized guinea-pig, histamine i.v. (Konzett and Rossler); format: in vivo; details: for Percentage of inhibition of the bronchoconstriction: histamine
Method: (§1) Injected intravenously or intraduodenally, the compounds of formula (I) are capable of opposing bronchoconstriction caused in a guinea-pig anaesthetized with ethylurethane at 20 % (1.5 g/kg intraperitoneally) by intravenous injection of histamine ([…]/i.v.), of acetylcholine (40 μg/kg/i.v.), of bradykinine (5 μg/kg/i.v.) or of serotinine (20 μg/kg/i.v.).
(§2) .- The anti-bronchoconstriction properties were studied in an anaesthetized guinea-pig and in a vigil guinea-pig.
(§3) The antagonism exercised by the products studied to a bronchoconstriction due to an intravenous injection of acetylcholine, histamine or bradykinine was evaluated according to Konzett and Rossler's method.
(§4) The products studied were administered intraduodenally or intravenously.

[3] = test system: bronchoconstriction caused by acetylcholine; experiment: Anti-bronchoconstriction, anaesthetized guinea-pig, acetylcholine i.v. (Konzett and Rossler); format: in vivo; details: for ED50: Cavia porcellus, iv, compound i.v., read-out: DE 50 (the source's name); for activity by route of administration: i.v. and i.d.; for anti-bronchoconstriction properties (in words): guinea-pig, comparison with compound of patent No 3 862 177
Method: as §1, §2, §3, §4

[4] = test system: bronchoconstriction caused by bradykinine; experiment: Anti-bronchoconstriction, anaesthetized guinea-pig, bradykinine i.v. (Konzett and Rossler); format: in vivo
Method: as §1, §2, §3, §4

[5] = test system: bronchoconstriction caused by serotonine; experiment: Anti-bronchoconstriction, anaesthetized guinea-pig, serotonine i.v.; format: in vivo; details: Cavia porcellus, iv, compound i.v., read-out: DE 50 (the source's name)
Method: as §1

[6] = test system: bronchospasm caused by histamine aerosol; experiment: Protection of vigil guinea-pig against histamine aerosol bronchospasm; format: in vivo
Method: These properties are also observed by administering the compounds of formula (I) orally, to a vigil guinea-pig subjected to a histamine aerosol (exposition for 10 minutes to an aerosol obtained from an aqueous solution containing 0.4 % histamine and 10 % glycerine), the criterium of activity being the total protection from the fall caused by the bronchospasm.

[7] = test system: bronchospasm caused by acetylcholine aerosol; experiment: Protection of vigil guinea-pig against acetylcholine aerosol bronchospasm; format: in vivo
[8] = test system: contractural action of histamine on the ileum; experiment: Spasmolytic, ileum of guinea-pig, histamine
Method: (§5) Compound code number 73 0457, introduced into the conserving medium, is capable of opposing the contractural action of histamine and bradykinine on the ileum of a guinea-pig, DI 50 being respectively 0.16 μg/ml and 3.1 μg/ml, prevents spasms in the uterus of a female rat induced by serotonine (DI 50= 0.8 μg/ml) and opposes the contracting effect of acetylcholine on the duodenum of a rat (DI 50= 0.8μg/ml).

[9] = test system: contractural action of bradykinine on the ileum; experiment: Spasmolytic, ileum of guinea-pig, bradykinine
Method: as §5

[10] = test system: spasms in the uterus induced by serotonine; experiment: Spasmolytic, uterus of female rat, serotonine
Method: as §5

[11] = test system: contracting effect of acetylcholine on the duodenum; experiment: Spasmolytic, duodenum of rat, acetylcholine
Method: as §5

Shay's ulcers = experiment: Shay's ulcers, rat, binding the pylorus; format: in vivo; details: for anti-ulcerous properties (in words): comparison with compound No. 7110 / patent No 3 862 177
Method: (b) Shay's ulcers: the compounds of formula (I) administered intraduodenally reduce the area of ulcerations induce in a rat by binding the pylorus. Thus, compound code No 73 0466 administered in a dose of 20 mg/kg/i.d. reduces by 80 % Shay's ulcer.
(§6) .- The anti-ulcerous activity was evaluated by the percentage of protection (quantal response) against ulcers caused in a rat by binding the pylorus or by putting under constraint for 7 hours.
(§7) The products were administered intraduodenally (Shay's ulcer) or orally (constraint ulcer).

gastric secretion [12] = experiment: Gastric antisecretory activity, vigil rat, pyloric binding for 4 hours; format: in vivo; details: for ED50: Rattus norvegicus, 4 h, i.d.; for gastric antisecretory properties (in words): comparison with compound No. 7110 / patent No 3 862 177
Method: .- The gastric antisecretory activity was studied in a vigil rat fitted with a pyloric binding for 4 hours, according to Shay and al.
It was evaluated by diminutions in the volume, the concentration and the flow of free acid in the gastric juice. The compounds tested were administered intraduodenally.

Acute toxicity, mouse = details: in vivo
constraint ulcers = experiment: Constraint ulcers, rat, 7 hours; format: in vivo
Method: (a) Constraint ulcers: the compounds of formula (I), administered orally, reduce the area of ulcerations caused in a rat placed under constraint. Thus, compound No 73 0466 administered at a dose of 5 mg/kg/po, reduces by 78% the area of the ulcerations caused by being put under constraint for 7 hours.
as §6, §7

gastric secretion [13] = experiment: Gastric antisecretory properties, anaesthetized rat with Shay binding; format: in vivo; details: 2 mg/kg i.d.
Source text: The compounds of formula (I), administered intraduodenally to an anaesthetized rat provided with a Shay binding are capable of reducing the gastric secretion.

[14] = acetylcholine, anaesthetized guinea-pig
[15] = read-out: Gastric antisecretory action, Volume, D.E. 50
[16] = po, 2000 mg/kg, p.o., 2 000 mg/kg, read-out: Percentage mortality, orally
[17] = acetylcholine i.v., 25 mg/kg i.d.

Compound: prethcamide [MICORENE, reference compound]
- Duration of effect ([1]; 10 mg/kg i.v.): 7 min

Compound: O=C(CCn1c(CN2CCN(CC=Cc3ccccc3)CC2)nc2ccccc21)c1ccco1 [73 0457, dimaleate of 1-[2'-(α-furoyl)eth-1' yl]-2-(4"-cinnamylpiperazin 1" ylmethyl) benzimidazole]
- Percentage of inhibition of the bronchoconstriction ([2]; 12.5 mg/kg i.d.): 100%
- ED50 ([3]; acetylcholine i.v.): < 4 mg/kg
- Anti-bronchoconstriction action, percentage ([3]; acetylcholine i.v., 0.0625 mg/kg i.v.): 63%
- Percentage of inhibition of the bronchoconstriction ([3]; acetylcholine, 12.5 mg/kg i.d.): 70%
- Duration ([3]; acetylcholine, 12.5 mg/kg i.d., Table I): > 90 min
- Duration ([3]; acetylcholine, 12.5 mg/kg i.d., Table IV): > 90 min
- times lower active dose than that of compound No. 7110 [3, 14]: 38 times
- activity by route of administration [3, 14]: active in this same test, not only when administered intravenously but intraduodenally
- anti-bronchoconstriction properties (in words) [3]: considerable anti-bronchoconstriction and respiratory analeptic properties
- Percentage of inhibition of the bronchoconstriction ([4]; bradykinine, 8 mg/kg i.v.): 75%
- ED50 [5]: < 4 mg/kg
- percentage of animals totally protected ([6]; 1.56 mg/kg p.o.): 50%
- Duration ([6]; 100 mg/kg p.o.): > 6 h
- Percentage of inhibition of the bronchoconstriction ([6]; 100 mg/kg p.o.): 100%
- percentage of animals totally protected ([7]; 12.5 mg/kg p.o.): 50%
- Duration of effect ([1]; 10 mg/kg i.v.): 25 min
- respiratory analeptic activity (in words) [1]: considerable respiratory analeptic activity; also recorded: considerable anti-bronchoconstriction and respiratory analeptic properties
- DI 50 [8]: 0.16 µg/mL
- DI 50 [9]: 3.1 µg/mL
- DI 50 [10]: 0.8 µg/mL
- DI 50 [11]: 0.8 µg/mL
- Anti-ulcerous action, Shay's ulcer (percentage of protection, quantal response) (Shay's ulcers; 50 mg/kg i.d.): 0
- anti-ulcerous properties (in words) (Shay's ulcers): lower gastric antisecretory and anti-ulcerous activities
- ED50 (gastric secretion [12]; read-out: Gastric antisecretory action, Free acid concentration, D.E. 50): 55 mg/kg
- ED50 (gastric secretion [12]; read-out: Gastric antisecretory action, Free acid flow, D.E. 50): 15 mg/kg
- ED50 (gastric secretion [12]; [15]): 11.5 mg/kg
- gastric antisecretory properties (in words) (gastric secretion [12]): lower gastric antisecretory and anti-ulcerous activities
- mortality (Acute toxicity, mouse; iv, 48 mg/kg, i.v., at 48 ± 2.5 mg/kg, read-out: Percentage mortality, intravenously): ~50%
- LD50 (Acute toxicity, mouse; iv, read-out: Dose administered (mouse), intravenously, DE 50): 48 ± 2.5 mg/kg
- mortality (Acute toxicity, mouse; [16]): 0%

Compound: O=C(CCn1c(CN2CCN(CC=Cc3ccccc3)CC2)nc2ccccc21)c1cccs1 [73 0466, dimaleate of 1-[2'(α -thienoyl)eth-1'yl]-2-(4"-cinnamylpiperazin 1"ylmethyl)benzimidazole]
- ED50 ([2]; Cavia porcellus, histamine i.v., compound i.d., read-out: D.E. 50 (the source's name)): 25 mg/kg
- Percentage of inhibition of the bronchoconstriction ([2]; 25 mg/kg i.d.): 50%
- Anti-bronchoconstriction action, percentage [3, 17]: 95%
- Duration of anti-bronchoconstriction action [3, 17]: > 30 min
- Duration ([3]; acetylcholine, 100 mg/kg i.d.): 60 min
- Percentage of inhibition of the bronchoconstriction ([3]; acetylcholine, 100 mg/kg i.d.): 100%
- activity by route of administration [3, 14]: active in this same test, not only when administered intravenously but intraduodenally
- anti-bronchoconstriction properties (in words) [3]: considerable anti-bronchoconstriction and respiratory analeptic properties
- percentage of animals totally protected ([6]; 50 mg/kg p.o.): 67%
- percentage of animals totally protected ([7]; 50 mg/kg p.o.): 100%
- respiratory analeptic activity (in words) [1]: considerable anti-bronchoconstriction and respiratory analeptic properties
- reduction of the area of the ulcerations (constraint ulcers; 5 mg/kg p.o., constraint for 7 hours): 78%
- reduction of Shay's ulcer (area of ulcerations) (Shay's ulcers; 20 mg/kg i.d.): 80%
- anti-ulcerous properties (in words) (Shay's ulcers): lower gastric antisecretory and anti-ulcerous activities
- Gastric antisecretory action, Free acid concentration (gastric secretion [12]; 2 mg/kg i.d.): inactive
- gastric antisecretory properties (in words) (gastric secretion [12]): lower gastric antisecretory and anti-ulcerous activities
- mortality (Acute toxicity, mouse; [16]): 30%
- reduction of the volume of the gastric secretion (gastric secretion [13]): 28%

Compound: O=C(CCn1c(CN2CCN(CC=Cc3ccccc3)CC2)nc2ccccc21)c1ccccc1 [7 110, reference compound]
- ED50 ([3]; acetylcholine i.v.): 2.4 mg/kg
- Anti-bronchoconstriction action ([3]; acetylcholine i.v., 30 mg/kg i.d.): 0
- activity by route of administration [3, 14]: acts solely intravenously
- ED50 ([4]; Cavia porcellus, bradykinine i.v., compound i.d., read-out: D.E. 50 (the source's name)): 30 mg/kg
- Duration of effect ([1]; 4 mg/kg i.v.): 0 min
- Percentage increase, respiratory amplitude ([1]; 4 mg/kg i.v.): 0%
- Percentage increase, respiratory frequency ([1]; 4 mg/kg i.v.): 0%
- ED50 (constraint ulcers; Rattus norvegicus, po, 7 h, p.o., read-out: Anti-ulcerous action, Constraint ulcer for 7 hours, D.E. 50): 4.2 mg/kg
- ED50 (Shay's ulcers; Rattus norvegicus, i.d., read-out: Anti-ulcerous action, Shay's ulcer, D.E. 50): 28.5 mg/kg
- ED50 (gastric secretion [12]; [15]): 2.5 mg/kg
- mortality (Acute toxicity, mouse; po, 4800 mg/kg, p.o., 4 800 mg/kg, read-out: Acute toxicity (p.o.), percentage mortality): 30%
